Measured values published in patent EP4119547A1, “TRIAZOLE COMPOUNDS FOR THE CONTROL OF INVERTEBRATE PESTS” (priority 2021, dated 2023).

How the values were obtained:
Type in all cases: in vivo
[1] = system: Diamond back moth (Plutella xylostella); experiment: Diamond back moth leaf-dip test on cabbage leaves; conditions: cabbage leaves dipped, 3rd instar larvae, 72 hours after treatment, read-out: mortality in comparison with untreated controls
Protocol: The active compound was dissolved at the desired concentration in a mixture of 1:1 (vol:vol) distilled water: acetone. Surfactant (Kinetic HV) was added at a rate of 0.01% (vol/vol). The test solution was prepared on the day of use.
Leaves of cabbage were dipped in test solution and air-dried. Treated leaves were placed in petri dishes lined with moist filter paper and inoculated with ten 3rd instar larvae. Mortality was recorded 72 hours after treatment. Feeding damages were also recorded using a scale of 0-100%.

[2] = system: Green Peach Aphid (Myzus persicae); experiment: Green peach aphid systemic test, artificial diet under membrane in 96-well microtiter plates; conditions: 72 h, adult aphids on treated artificial diet, 3 days, read-out: mortality in comparison with untreated controls
Text: For evaluating control of green peach aphid (Myzus persicae) through systemic means, the test unit consisted of 96-well-microtiter plates containing liquid artificial diet under an artificial mem brane.
The compounds were formulated using a solution containing 75% v/v water and 25% v/v DMSO. Different concentrations of formulated compounds were pipetted into the aphid diet, using a custom built pipetter, at two replications.
After application, 5 - 8 adult aphids were placed on the artificial membrane inside the microtiter plate wells. The aphids were then allowed to suck on the treated aphid diet and incubated at about 23 ± 1°C and about 50 ± 5 % relative humidity for 3 days. Aphid mortality and fecundity was then visually assessed.

[3] = system: Tobacco budworm (Heliothis virescens); experiment: Tobacco budworm test, insect diet with eggs in 96-well microtiter plates; conditions: 120 h, egg and larval mortality, 5 days, read-out: mortality in comparison with untreated controls
Protocol: For evaluating control of tobacco budworm (Heliothis virescens), the test unit consisted of 96-well-microtiter plates containing an insect diet and 15-25 H. virescens eggs.
The compounds were formulated using a solution containing 75% v/v water and 25% v/v DMSO. Different concentrations of formulated compounds were sprayed onto the insect diet at 10 µl, using a custom-built micro atomizer, at two replications.
After application, microtiter plates were incubated at about 28 ± 1°C and about 80 ± 5 % relative humidity for 5 days. Egg and larval mortality was then visually assessed.

[4] = system: Yellow fever mosquito (Aedes aegypti); experiment: whole plant or invertebrate; conditions: 48 h, larval mortality, 2 days, read-out: mortality in comparison with untreated controls
Protocol: For evaluating control of yellow fever mosquito (Aedes aegypti) the test unit consisted of 96-well-microtiter plates containing 200µl of tap water per well and 5-15 freshly hatched A. aegypti larvae.
The active compounds were formulated using a solution containing 75% (v/v) water and 25% (v/v) DMSO. Different concentrations of formulated compounds or mixtures were sprayed onto the insect diet at 2.5µl, using a custom-built micro atomizer, at two replications.
After application, microtiter plates were incubated at 28 ± 1°C, 80 ± 5 % RH for 2 days. Larval mortality was then visually assessed.

[5] = system: Boll weevil (Anthonomus grandis); experiment: Boll weevil test, insect diet with eggs in 96-well microtiter plates; conditions: 120 h, egg and larval mortality, 5 days, read-out: mortality in comparison with untreated controls
Protocol: For evaluating control of boll weevil (Anthonomus grandis), the test unit consisted of 96-well-microtiter plates containing an insect diet and 5-10 A. grandis eggs.
The compounds were formulated using a solution containing 75% v/v water and 25% v/v DMSO. Different concentrations of formulated compounds were sprayed onto the insect diet at 5 µl, using a custom-built micro atomizer, at two replications.
After application, microtiter plates were incubated at about 25 ± 1°C and about 75 ± 5 % relative humidity for 5 days. Egg and larval mortality was then visually assessed.

[6] = system: Orchid thrips (Dichromothrips corbetti); experiment: Orchid thrips floral-immersion test; conditions: adult thrips on dipped orchid petals, 72 hours after treatment, read-out: mortality in comparison with untreated controls
Protocol: Dichromothrips corbetti adults used for bioassay were obtained from a colony maintained continuously under laboratory conditions. For testing purposes, the test compound is diluted in a 1:1 mixture of acetone:water (vol:vol), plus Kinetic HV at a rate of 0.01% v/v.
Thrips control potency of each compound was evaluated by using a floral-immersion technique. All petals of individual, intact orchid flowers were dipped into treatment solution and allowed to dry in Petri dishes. Treated petals were placed into individual re-sealable plastic along with about 20 adult thrips. All test arenas were held under continuous light and a temperature of about 28°C for duration of the assay. After 3 days, the numbers of live thrips were counted on each petal. The percent mortality was recorded 72 hours after treatment.

CC(=NO)n1ncnc1C(C)NC(=O)c1cc(C(F)(F)F)cc(C(F)(F)F)c1 (stereo not shown) [I-1, N-[1-[2-[N-hydroxy-C-methyl-carbonimidoyl]-1,2,4-triazol-3-yl]ethyl]-3,5-bis(trifluoromethyl)benzamide]
≥ 75%: mortality at 300 ppm [1] | mortality at 2500 ppm [2] | mortality at 2500 ppm [3] | mortality at 2500 ppm [4]

CO/N=C(/C)n1ncnc1C(C)NC(=O)c1cc(C(F)(F)F)cc(C(F)(F)F)c1 (stereo not shown) [I-3, N-[1-[2-[(Z)-N-methoxy-C-methyl-carbonimidoyl]-1,2,4-triazol-3-yl]ethyl]-3,5-bis(trifluoromethyl)benzamide]
≥ 75%: mortality at 300 ppm [1] | mortality at 2500 ppm [2] | mortality at 2500 ppm [3] | mortality at 2500 ppm [5] | mortality at 300 ppm [6] | mortality at 2500 ppm [4]

CO/N=C(\C)n1ncnc1C(C)NC(=O)c1cc(C(F)(F)F)cc(C(F)(F)F)c1 (stereo not shown) [I-4, N-[1-[2-[(E)-N-methoxy-C-methyl-carbonimidoyl]-1,2,4-triazol-3-yl]ethyl]-3,5-bis(trifluoromethyl)benzamide]
≥ 75%: mortality at 300 ppm [1] | mortality at 2500 ppm [2] | mortality at 2500 ppm [3] | mortality at 2500 ppm [5] | mortality at 300 ppm [6] | mortality at 2500 ppm [4]
